In brackets after ≈: the same amount, converted by molar mass. Several values for one entry are separate records, joined by “and”; a condition that tells them apart may be missing. Equal entries are not always repeated. Where two headings read alike, the source gives them in different places.
What was measured:
[1] = tested on: HIV-1 wild type; experiment: MT-4 cell-based antiviral assay (viral cytopathicity, tetrazolium); conditions: Human immunodeficiency virus 1, MT4, wild type virus
Method: (§1) Compound E-TMC278 was tested in a cell-based assay, using natural host cells of HIV. MT-4 cells (a cell line of human T cells) were infected with HIV-1 (wild type or mutants) and exposed to different concentrations of antiviral compound in the presence of 10% fetal calf serum. Cytotoxicity was determined in parallel with the antiviral activity so that the selectivity of the antiviral effect could be assessed. Active compounds have to penetrate the cell membrane in order to interfere with replication steps inside the cell.
(§2) After four days of incubation at 37° C., the viability of the HIV and mock-infected cells was assessed by an automated tetrazolium-based calorimetric assay. This method enabled the calculation of both the 50% inhibitory concentration for inhibition of viral cytopathicity (IC50), the IC90, and the 50% cytotoxic concentration (CC50). The ratio CC50/IC50, also called the selectivity index, is an indication of the specificity of the antiviral effect. Tested HIV strains included: Wild type (wt) HIV-1; a panel of single and double mutants, obtained by site-directed mutagenesis (SDM), and a panel of clinical isolates, selected for resistance against NNRTIs.

[2] = tested on: HIV-1 double mutant 100I + 103N; experiment: MT-4 cell-based antiviral assay, SDM mutant
Method: as §1, §2
(§3) A limited panel of HIV-1 mutants was constructed using site-directed mutagenesis (SDM) and homologous recombination techniques. […] Nevirapine (NVP) and efavirenz (EFV) were included as controls.

[3] = tested on: HIV-1 double mutant 101E + 103N; experiment: MT-4 cell-based antiviral assay, SDM mutant; conditions: Human immunodeficiency virus 1, MT4, 96 h
Method: as §1, §2, §3

[4] = tested on: HIV-1 double mutant 103N + 181I; experiment: MT-4 cell-based antiviral assay, SDM mutant; conditions: Human immunodeficiency virus 1, MT4, 96 h
Method: as §1, §2, §3

[5] = tested on: HIV-1 double mutant 227L + 106A; experiment: MT-4 cell-based antiviral assay, SDM mutant
Method: as §1, §2, §3

[6] = tested on: HIV-1 mutant 101E; experiment: MT-4 cell-based antiviral assay, SDM mutant; conditions: Human immunodeficiency virus 1, MT4
Method: as §1, §2, §3

[7] = tested on: HIV-1 mutant 103N; experiment: MT-4 cell-based antiviral assay, SDM mutant
Method: as §1, §2, §3

[8] = tested on: HIV-1 mutant 106A; experiment: MT-4 cell-based antiviral assay, SDM mutant; conditions: Human immunodeficiency virus 1, MT4
Method: as §1, §2, §3

[9] = tested on: HIV-1 mutant 179D; experiment: MT-4 cell-based antiviral assay, SDM mutant; conditions: Human immunodeficiency virus 1, MT4
Method: as §1, §2, §3

[10] = tested on: HIV-1 mutant 181C; experiment: MT-4 cell-based antiviral assay, SDM mutant
Method: as §1, §2, §3

[11] = tested on: HIV-1 mutant 188C; experiment: MT-4 cell-based antiviral assay, SDM mutant; conditions: Human immunodeficiency virus 1, MT4
Method: as §1, §2, §3

[12] = tested on: HIV-1 mutant 188L; experiment: MT-4 cell-based antiviral assay, SDM mutant
Method: as §1, §2, §3

[13] = tested on: HIV-1 mutant 190A; experiment: MT-4 cell-based antiviral assay, SDM mutant; conditions: Human immunodeficiency virus 1, MT4
Method: as §1, §2, §3

[14] = tested on: HIV-1 mutant 190S; experiment: MT-4 cell-based antiviral assay, SDM mutant; conditions: Human immunodeficiency virus 1, MT4
Method: as §1, §2, §3

[15] = tested on: HIV-1 mutant 227C; experiment: MT-4 cell-based antiviral assay, SDM mutant
Method: as §1, §2, §3

[16] = tested on: HIV-1 mutant 227L; experiment: MT-4 cell-based antiviral assay, SDM mutant; conditions: Human immunodeficiency virus 1, MT4
Method: as §1, §2, §3

[17] = tested on: HIV-1 mutant 234I; experiment: MT-4 cell-based antiviral assay, SDM mutant; conditions: Human immunodeficiency virus 1, MT4
Method: as §1, §2, §3

[18] = tested on: HIV-1 mutant 236L; experiment: MT-4 cell-based antiviral assay, SDM mutant; conditions: Human immunodeficiency virus 1, MT4
Method: as §1, §2, §3

[19] = Phase I single oral dose trials: safety, tolerability, pharmacokinetics; assay type: in vivo, human; conditions: for Cmax / half-life / Tmax: human, plasma; for half-life / Tmax: male
Method: Oral doses of 12.5, 25, and 50 mg were formulated in PEG 400 and taken with a standard meal.
There was a time interval of about 14 days between each dosing session

[20] = tested on: wild type HIV-1; experiment: Development of resistance in vitro, MT4 cells, high multiplicity of infection; assay type: cell-based; conditions: wild type HIV-1, >1 infectious virus per cell, all tested concentrations, total 30 days
Text: (§4) Emerging virus was collected for pheno- and genotyping. Cultures without evidence of virus replication were further sub-cultivated in the presence of the same concentration of inhibitor for a total duration of 30 days (10 passages).

[21] = tested on: HIV-1 double resistant mutant K103N+Y181C; experiment: Development of resistance in vitro, starting from double mutant; assay type: cell-based
Text: as §4

[22] = Cardiovascular and pulmonary safety in vitro; conditions: concentrations covering or exceeding the anti-viral concentration in vitro
[23] = tested on: monotropic HIV strain Ba-L; experiment: MO-DC/CD4(+) T cell co-culture model of sexual HIV transmission; assay type: cell-based; conditions: Human immunodeficiency virus 1, BAL, T-cell, 336 h, read-out: EC50 (concentration suppressing 50% of viral replication)
Text: Immature monocyte derived dendritic cells (immMO-DC) represent a good model for interstitial dendritic cells, which are early targets during sexual HIV transmission and important initiators of the immune response. These immMO-DC were used in “in vitro” models to test the prevention of HIV infection via sexual intercourse or related intimate contact between partners.
For instance, in one model, monocyte-derived dendritic cells (MO-DC) were infected for 2-hours with the monotropic HIV strain Ba-L at a multiplicity of infection (MOI) of 10^−3. After infection, cells were washed 6 times and resuspended in 10% BCS at 400.000 cells/ml. Autologous CD4(+) T cells were purified out of the lymphocyte fraction of the same elutration as the MO-DC and used at a concentration of 2×10^6 cells/ml ((ratio MO-DC/CD4(+) T: 1/5).
A serial dilution of a compound of formula (I) (test compound) was added to the MO-DC/CD4(+) T cell co-cultures. Each experiment was done in 96-well plates, in which each cup contained 50 μl of MO-DC, 50 μl of CD4(+) T cells and 100 μl of test compound. Half of the culture medium, with test compound, was refreshed twice weekly. Supernatants were analysed in ELISA after 14 days of culture. To determine antiviral activity, the test compound concentration able to suppress 50% of the viral replication at the end of the primary cultures (EC50) was measured.

[24] = Human immunodeficiency virus 1, MT4
[25] = Human immunodeficiency virus 1, MT4, read-out: IC50 value
[26] = single oral doses, healthy volunteers

In the case of `Cc1cc(/C=C/C#N)cc(C)c1Nc1ccnc(Nc2ccc(C#N)cc2)n1` [E-TMC278, (E)-4-[[4-[[4-(2-cyanoethenyl)-2,6-dimethylphenyl]-amino]-2-pyrimidinyl]-amino]-benzonitrile], the IC90 [1] is reported as 1.3 nM and 0.00048 µg/mL, the IC50 ([1]; read-out: IC50) is reported as 0.15 ng/mL (≈ 0.409 nM) and the IC90 [2, 24] is reported as about 16 nM. The IC50 ([2]; Human immunodeficiency virus 1, MT4, 96 h, 100I + 103N, MT-4 cells) was about 8 nM, the IC50 ([2]; Human immunodeficiency virus 1, MT4, read-out: IC50 value, Table 1, HIV RT mutation: 100I + 103N) was 7.9 nM and the IC50 [3] was 0.5 nM. The IC50 [4] was 1 nM, the IC50 ([5]; Human immunodeficiency virus 1, MT4, 96 h) was 1 nM and the IC50 [5, 25] was 1 nM. For the same molecule, the IC50 [6] was 1.6 nM, the IC50 [7, 24] was 0.3 nM and the IC50 [7, 25] was 0.3 nM. It also gave an IC50 [8] of 0.2 nM, an IC50 [9] of 0.6 nM and an IC50 [10, 24] of 1.3 nM. For the same molecule, the IC50 [10, 25] was 1.3 nM, the IC50 [11] was 0.1 nM and the IC50 [12, 24] was 2 nM. For the same molecule, the IC50 [12, 25] was 2 nM, the IC50 [13] was 0.3 nM and the IC50 [14] was 0.1 nM. It also gave an IC50 [15, 24] of 2 nM, an IC50 [15, 25] of 2 nM and an IC50 [16] of 0.3 nM. The IC50 [17] was 0.3 nM, the IC50 [18] was 0.3 nM and the “correlation coefficient for AUC0-48 hr (dose proportionality)” value ([19]; 12.5-200 mg) was 0.9952. The “correlation coefficient for the 5 Cmax datapoints (dose proportionality)” value ([19]; 12.5-200 mg) was 0.9897, the Cmax ([19]; single oral dose 25 mg in PEG 400 with standard meal, healthy male volunteers) was 0.149 ± 0.032 µg/mL and the Cmax ([19]; single oral dose 50 mg in PEG 400 with standard meal, healthy male volunteers) was 0.267 ± 0.027 µg/mL. For the same molecule, the Cmax ([19]; single oral dose 100 mg, healthy male subjects) was 0.482 ± 0.121 µg/mL, the Cmax ([19]; single oral dose 200 mg, healthy male subjects) was 0.807 ± 0.207 µg/mL and the half-life ([19]; across single oral doses, read-out: Half-life of plasma concentrations) was 37 to 39 h. The Tmax ([19]; single oral dose 12.5 mg) was 4 h, the half-life ([19]; single oral dose 12.5 mg, read-out: T1/2 (converted)) was 37.1 h and the Tmax ([19]; single oral dose 25 mg) was 4 ± 1.3 h. It also gave a half-life ([19]; single oral dose 25 mg, read-out: T1/2 (converted)) of 38.7 h, a Tmax ([19]; single oral dose 50 mg) of 4 ± 1.3 h and a half-life ([19]; single oral dose 50 mg, read-out: T1/2 (converted)) of 45 ± 9 h. It also gave a Tmax ([19]; single oral dose 100 mg) of 4.3 ± 0.8 h, a half-life ([19]; single oral dose 100 mg, read-out: T1/2 (converted)) of 55 ± 18 h and a Tmax ([19]; single oral dose 200 mg) of 4.3 ± 0.8 h. For the same molecule, the Adverse effects [19, 26] was “No relevant adverse effects”, the Tolerability [19, 26] was “well tolerated” and the “time to emergence of resistant virus” value [20] was over 30 days. For the same molecule, the emergence of resistance [21] was “resistance did emerge at all tested concentrations”, the “effect on cardiovascular and pulmonary parameters in vitro” value [22] was “little or no effect” and the EC50 [23] was 0.55 nM.
